The source of these data is patent US20050256179A1, “Selective pharmacologic inhibition of protein trafficking and related methods of treating human diseases” (priority 2003, published 2005).

Type in all cases: cell-based
In one test the test system is calnexin. Briefly: Calnexin expression by Western blotting (control). As for the experimental part: The culture medium was removed by vacuuming (for attached cells) or by low speed centrifugation (for suspension cells) for 5-7 minutes at room temperature. The cells were wasedh twith PBS, spun at 1200 rpm and the cell pellets were kept on ice. 300 μl/2.0×10^7 cells of ice cold lysis buffer was added with freshly added protease inhibitors. Cell pellets were gently resuspended and incubated on ice for at least 30 min, vortexed a few times during incubation. Cell lysate was spun at 14,000 rpm for 2-5 min at 4° C. The supernatant was transferred to a new microfuge tube and the pellet was discarded. An aliquot of sample was mixed with an equal volume of 2× sample buffer (InVitrogen), and stored at −80° C. Protein concentration was determined by using “BCA protein assay reagent kit” from Pierce.
Protein samples (in sample buffer) were boiled for 1-3 minutes and put on ice. Same amount of protein were loaded on the NuPage gel (InVitrogen). […]
To further examine the putative protein trafficking effects of AVP 893, other proteins in this pathway were tested in vitro in B16 and other cell lines. […] Other cell lines were tested for their expression of GS28 and nicastrin and found to respond similarly to drug, although quantitative differences were evident. […]
For orientation: Immunoblotting shows a protein as a band on a membrane.

For another test, the system named is Rab1b. Briefly: Rab1b expression by Western blotting. As for the experimental part: Protein samples (in sample buffer) were boiled for 1-3 minutes and put on ice. Same amount of protein were loaded on the NuPage gel (InVitrogen). After the electrophoresis was complete, proteins were transferred from the gel to a PVDF membrane using the electro-blotting apparatus from InVitrogen; the voltage was set to 25 for 2-3 hr. Block non-specific binding by incubating membrane with 5% milk (in PBS, 0.1% tween 20) for at least 30 min at room temperature or overnight at 4° C. The blocked membrane was incubated with primary antibody (See TABLE 2) diluted in 5% milk for 1 hour at room temperature. Optimal antibody dilution depends on the company, the amount of protein. Dilutions of 1:1000 were generally used for the primary antibodies from Santa Cruz. The membrane was washed with PBS, 0.1% tween 3-4 times 5 mins. The membrane was incubated for 30-60 minutes at room temperature with horseradish peroxidase (HRP) conjugated secondary antibody diluted in 5% milk. We usually used 1:4000 dilution for the secondary antibody from Santa Cruz. The membrane was washed 3-4 times with PBS, 0.1% tween, each time 15 minutes. The detection solutions A and B were mixed in a ratio 40:1 and Pipetted onto the membrane, and incubated for 5 min at RT. A sheet of Hyper film ECL was placed on the top of the membrane in the dark and exposed for 1 min, or adjust accordingly. […]

The subject of test [1] is PC12 pheochromocytoma cells. Briefly: Norepinephrine release and dopamine re-uptake in PC12 cells. The settings on record: not shown. The text has this: The proposed mechanism of the AVP compounds on intracellular protein transit also allows certain predictions as to other effects and non-effects that these compounds might share. For example, inhibition of vesicle fusion or budding between the ER and golgi should not affect exocytosis as would be expected of a post-golgi active compound such as Monensin. AVP 893 has minimal effects on the expression of proteins involved in exocytosis, particularly VAMP, SNAP23 (non-neuronal cells), and SNAP25 (neuronal cells).

For another test, the system named is B16F10 cells. Briefly: Density gradient centrifugation, intracellular protein distribution. The settings on record: B16 cells, 16 hours drug. As for the experimental part: To test this possibility directly, cells were cultured with and without drug for 16-20 hours, harvested, lysed, and layered on top of a gradient of varying density iodixanol-containing fractions (2.5-30%). The gradients were centrifuged for 2 to 18 hours at 56K x g, collected, and tested for resident proteins via Western blot. Fractions were probed with antibodies specific for calnexin (ER-specific marker), γ-adaptin (golgi), and Rab5a (vesicles). […] FIGS. 34 and 35 also show the unfractionated levels of Rab6 and Rab1B, respectively, that were obtained prior to density gradient centrifugation. No difference in the expression of these 3 marker proteins was observed between the control and drug-treated cells.
B16F10 cells were seeded into 175 cm2 flasks one day prior to drug application. On the subsequent day, fresh media +/−drug was applied to the cultures. 16 hours later, the cells were washed with cold Dulbecco's PBS, then harvested in ice-cold homogenization buffer: 130 mM KCl, 25 mM NaCl, 1 mM EGTA, 25 mM Tris pH7.4, plus 15 ul protease inhibitor per 5 mL buffer. 1 mL of buffer was used per flask, and the cells were scrapped off into 14 mL round-bottom culture tubes and kept on ice. The harvested cells were then homogenized with a tissue homogenizer (Polytron PT10/35), transferred into 2 mL centrifuge tubes, and spun at 1,000 rpm for 8 min at 4° C. […]

SMILES strings stand for the structures.

On to `O=C(Nc1ccc(-c2nc3cc(NC(=O)C4CCCCC4)ccc3[nH]2)cc1)C1CCCCC1` [AVP 893], for which the levels of calnexin result with calnexin (drug-treated cell lines) was “unchanged”. Moreover, the calnexin expression entry in the test on calnexin (stimulated BALB/c spleen cells, 100 ng/ml, 20 hours) was “minimally affected”. Besides, the results for the Rab1b expression entry in the test on Rab1b (3T3 cells) and in the test on Rab1b (spleen cells) were “not affected in 3T3 cells” and “suppressed in spleen cells”, respectively. Also, in test [1], the “release of norepinephrine, re-uptake of dopamine” value was “does not affect the release of norepinephrine or the re-uptake of dopamine”. Also, the “distribution of Rab 1b and Rab 6 in gradient fractions” value in the test with B16F10 cells was “retained in the ER at the expense of the golgi compartment”.
